Square brackets hold non-standard residues; d marks the D form. Peptide text beside a SMILES is read from it. pS = N[C@@H](COP(=O)(O)O)C(=O)O
Tests used:
[1] = tested on: NPC1 patient fibroblasts; assay: Gene expression in NPC1 patient fibroblasts; assay type: cell-based, human
[2] = tested on: NPC1 (I1061T mutant) homozygous patient fibroblasts; assay: Cellular calcium in NPC1 (I1061T mutant) patient fibroblasts; assay type: cell-based, human
[3] = target: T1, TMEM97 (108-176) (Homo sapiens, UniProt Q5BJF2); assay: Isothermal titration calorimetry, TMEM97 (108-176); assay type: binding; details: ITC
T1 construct: Three peptides, TMEM97 (108-176), TMEM97 (108-143) and TMEM97 (144-176), were synthesized; made in house; host or cells: chemical solid-phase synthesis (Fmoc, Wang resin)
T1 sequence (Q5BJF2 108-176): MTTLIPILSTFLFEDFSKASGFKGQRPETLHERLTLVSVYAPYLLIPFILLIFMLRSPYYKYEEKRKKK
Protocol: Isothermal Titration Calorimetry (ITC). The three synthesized peptides, TMEM97 (108-176), TMEM97 (108-143) and TMEM97 (144-176) were prepared in ITC buffer (10 mM Tris, pH 7.4, 150 mM NaCl, 0.05% polysorbate 20) at 40 μM concentration and placed in the sample cell. All ITC experiments were performed while stirring at 395 rpm, in ITC buffer at 25° C. using a VP-ITC titration microcalorimeter from MicroCal™, LLC (Northampton, Mass.). The microsyringe was loaded with a Histatin 1 solution (500 μM in ITC buffer). All titrations were conducted using an initial injection of 2.5 μL followed by 35 identical injections of 5 μL with a duration of 16 seconds (per injection) and a spacing of 210 seconds between injections. The buffer control titration (Histatin 1 into buffer) signals were subtracted from the experimental data. The collected data were evaluated using NITPIC (NIH), SEDPHAT (NIH), and GUSSI (NIH).
To determine more precisely which segment of TMEM97 is necessary for binding of Hst1, multiple synthetic fragments of TMEM97 were generated (Table 6) and binding to Hst1 was tested using SPR. […] Smaller fragments of the C-terminal of TMEM97 were then constructed to represent the (predicted) luminal (108-143) and cytoplasmic (144-176) exposed segments of the C-terminus of TMEM97 based on modeling experiments previously described. […]

[4] = tested on: HCE cells; assay: Immunofluorescence imaging of internalization and localization; assay type: cell-based, human
Protocol: Immunofluorescence Imaging. HCE cells were seeded on glass coverslips (Fisher Scientific Co.; Pittsburgh, Pa.) within a 6-well plate at 3×10^5 (cells/well) seeding density. […] HCE cells were then fixed in 3.7% paraformaldehyde, permeabilized with phosphate-buffered saline (PBS) containing 0.2% TRITON™ X-100 for 5 minutes, and washed three times for 5 minutes each time in PBS. For blocking, cells were and incubated at room temperature for 30 minutes with 5% bovine serum albumin (BSA) and 5% normal goat serum in PBS. For the Endoplasmic Reticulum (ER) staining, a Cytopainter ER staining kit (Abcam; Cambridge, Mass.) was used, following the manufacturer's instructions. After washing with 1×Assay buffer, cells were incubated with Green Detection Reagent to cover the monolayer of cells. For the detection of Hst1 and TMEM97, mouse anti-Hst1 antibody (Abcam; Cambridge, Mass.), rabbit primary antibody against Hst1 (Mybiosource; San Diego, Calif.), and rabbit anti-TMEM97 antibody (Novus Bio.; Littleton, Colo.) were used. Cells were incubated overnight at 4° C. with primary antibodies, washed three times for 5 minutes each time in PBS before incubation with secondary antibodies for 30 minutes. Cells were then counterstained with 1 μg/mL 4′,6-diamidino-2-phenylindole (DAPI) solution in PBS for 3 minutes, then washed three times with PBS containing 0.05% TRITON™ X-100 for 5 minutes each time, twice with PBS for 5 minutes each time, and once with distilled water for 10 seconds. The cells were mounted in Fluoro gel with Tris buffer (Electron Microscopy Sciences; Hatfield, Pa.) and observed under a confocal microscope (Zeiss LSM 710 Confocal Microscope; Oberkochen, Germany) using a 40×objective. Fluorescent dye sold under the tradename ALEXA FLUOR® 488 NHS Ester (Molecular Probes; Carlsbad, Calif.) was used for making Alexa-488 coupled synthetic Hst1.
Transfection/Knock-Down of TMEM97. Sub-confluent monolayers of HCE cells in grown in 35-mm six-well plates were transfected with reaction mixtures composed of 100 pmol of small interfering RNA (siRNA) to TMEM97 (Santa Cruz Biotechnology; Dallas, Tex.) for 48 hours and 5 μL of transfection reagent sold under the tradename LIPOFECTAMINE® 2000 (Invitrogen; Carlsbad, Calif.) in culture medium sold under the tradename OPTI-MEMO media (Gibco Life Technologies; Grand Island, N.Y.). Complexes were incubated for 20 minutes at 24° C. and then added to cells at 37° C. Incubation was continued for 24 to 48 hours at 37° C. in 5% CO2. Knock-down (KD) of TMEM97 was confirmed by western blot analysis using a rabbit anti-TMEM97 antibody (Novus Bio.; Littleton, Colo.). […]

[5] = tested on: mouse cerebellar tissue (NPC mouse model); assay: Lipid levels in Hst1-treated NPC mouse cerebellar tissue
From the text: In this respect, in addition to reducing the accumulation of cholesterol in liver tissue, histatin peptides may also be used to alter fatty acid and cholesterol metabolism in neuronal tissue thereby reducing changes associated with neurodegeneration.

CC(C)C[C@H](NC(=O)[C@H](Cc1ccc(O)cc1)NC(=O)[C@H](CC(N)=O)NC(=O)[C@H](CO)NC(=O)CNC(=O)[C@H](Cc1ccc(O)cc1)NC(=O)[C@H](CC(=O)O)NC(=O)CNC(=O)[C@H](Cc1ccc(O)cc1)NC(=O)[C@H](Cc1ccccc1)NC(=O)[C@@H]1CCCN1C(=O)[C@H](Cc1ccccc1)NC(=O)[C@H](CCC(=O)O)NC(=O)[C@H](CCCNC(=N)N)NC(=O)[C@H](Cc1c[nH]cn1)NC(=O)[C@H](CO)NC(=O)[C@H](Cc1c[nH]cn1)NC(=O)[C@H](Cc1c[nH]cn1)NC(=O)[C@H](CCCCN)NC(=O)[C@H](CCC(=O)O)NC(=O)[C@H](Cc1c[nH]cn1)NC(=O)[C@H](Cc1ccccc1)NC(=O)[C@H](CCCCN)NC(=O)[C@H](CCCNC(=N)N)NC(=O)[C@H](CCCNC(=N)N)NC(=O)[C@H](Cc1ccc(O)cc1)NC(=O)CNC(=O)[C@H](Cc1c[nH]cn1)NC(=O)[C@H](Cc1c[nH]cn1)NC(=O)[C@H](CCCNC(=N)N)NC(=O)[C@H](CCCCN)NC(=O)[C@H](CCC(=O)O)NC(=O)[C@H](Cc1c[nH]cn1)NC(=O)[C@H](COP(=O)(O)O)NC(=O)[C@@H](N)CC(=O)O)C(=O)N[C@@H](Cc1ccc(O)cc1)C(=O)N[C@@H](CC(=O)O)C(=O)N[C@@H](CC(N)=O)C(=O)O [Hst1] (H-D[pS]HEKRHHGYRRKFHEKHHSHREFPFYGDYGSNYLYDN-OH; N-terminus and C-terminus assumed)
HMG-CoA reductase gene expression [1]: reducing HMG-CoA reductase gene expression
NPC1 gene expression [1]: increasing NPC1 gene expression
cellular calcium levels [2]: increased cellular calcium levels
ΔS [3]: 11.6±3.4 cal/mol K
Kd ([3]; 25° C.): 890 ± 200 nM
co-immunolocalization with TMEM97 ([4]; exogenously applied Hst1): significant overlap
co-localization with endoplasmic reticulum stain ([4]; exogenously applied Hst1): good co-localization
internalization and/or localization in TMEM97 KD cells ([4]; siRNA knock-down of TMEM97): significantly disrupted internalization and/or localization
ceramides (Cer NS, HexCer NS, SM) ([5]; 7-week-old NPC mouse model): significantly increasing
gangliosides (GM3, GM2 and GM1) ([5]; 7-week-old NPC mouse model): significantly increasing
phosphatidylinositol 4,5-bisphosphate (PIP2; 20:4/18:0) levels ([5]; NPC1−/− mouse, 9-week-old): significantly decrease

From patent publication US20230190870A1, “Method for Treating Lysosomal Storage Diseases with Histatin Peptides” (THE BOARD OF TRUSTEES OF THE UNIVERSITY OF ILLINOIS, priority 2020, published 2023)
